US9221875B2, “Amphiphilic peptides for treatment of keratitis” (Agency for Science, Technology and Research, priority 2013, dated 2015)
In brackets after ≈: the same amount, converted by molar mass. Read-outs that look alike come from different tables or passages of the source. Marks after values point to notes of the source that are not given here. Peptide text beside a SMILES is read from it.

Key:
E. coli and S. aureus = assay: FE-SEM imaging of treated bacteria (Example 1); type: cell-based, Escherichia coli, Staphylococcus aureus; conditions: 2 h treatment
Procedure: E. coli suspension at ˜3×10^8 CFU ml^−1 (100 μL) was incubated with an equal volume of broth containing 20% (by volume) of water and a lethal dose (250 mg L^−1) of a representative peptide in a 96 well-plate for 2 h. Eight replicates of each condition was pooled into a microfuge tube, pelleted down at 5000×g for 5 min, and rinsed twice with PBS. The samples were then fixed with 4% formaldehyde at room temperature for 15 min, followed by rinsing with DI water. Dehydration of the cells was performed using a series of graded ethanol solutions (35, 50, 75, 90, 95 and 100%). The samples were allowed to air-dry, mounted on carbon table, and sputter coated with platinum for imaging with a FE-SEM setup (JEOL JSM-7400F, Japan).

S. aureus [1] = conditions: 18 h
S. aureus [2] = conditions: 18 h; remark: listed apart in the source
S. aureus biofilms [3] = type: cell-based, Staphylococcus aureus; conditions: 24 h; for killing of S. aureus residing in biofilms: MIC, 4×MIC, 8×MIC
Procedure: The wells were then rinsed once with 100 μL of PBS to remove planktonic cells and loosely attached cells, and replenished with 100 μL of fresh broth. Biofilm formation was allowed to proceed up to 6-8 days with daily rinsing and media changes before use in experiments. […] Subsequently, the solutions were removed and 120 μL of activated XTT solution was added into each well. […] Relative cell viability was expressed as [(A490-[…])sample/(A490-[…])control]×100%.

P. aeruginosa [4] = conditions: 18 h
F. solani = type: cell-based; conditions: 24 h
Procedure: The MICs of peptides were determined against the fungi C. albicans (American Type Culture Collection, ATCC) and F. solani (ATCC) by the broth microdilution method. […] F. solani, were cultured on sabouraud dextrose agar plates in incubator at 37° C. To collect conidia following incubation, conidia of F. solani species were harvested and standardized to 1×10^8 spores/ml before performing the experiments. Sabouraud dextrose broth (90 μL) was added to the wells of culture plates. […] The plates were incubated at 37° C. and examined macroscopically after 24 h for the growth of F. solani. Appropriate control wells without any treatment were included in the study. Peptide were considered to be active if the wells appeared clear without any visible growth of F. solani, and the results were expressed as MIC. The assay was performed in four replicates for each concentration.

C. albicans [5] = conditions: 42 h
rabbit red blood cells = type: cell-based; conditions: red cells of rabbit, 1 h
C. albicans keratitis = assay: Contact lens-associated C. albicans keratitis mouse model
P. aeruginosa [6] = conditions: 18 h; remark: listed apart in the source
S. epidermidis [7] = conditions: 18 h
[8] = tested on: 5 microorganisms tested (S. epidermidis, S. aureus, E. coli, P. aeruginosa, C. albicans); assay: Mean MIC over the panel and selectivity index (Example 1); type: cell-based
Procedure: Red blood cells suspension incubated with PBS was used as negative control.

C. albicans [9] = tested on: C. albicans
C. neoformans = assay: MBC against clinical isolates; type: cell-based; conditions: clinical isolate
[10] = tested on: Methicillin-resistant S. aureus; conditions: clinical isolate
P. aeruginosa [11] = assay: MBC against clinical isolates; type: cell-based; conditions: clinical isolate
[12] = Acute in vivo toxicity, intravenous tail vein injection; conditions: mouse, mice
Procedure: For the β-sheet forming peptides to qualify as suitable therapeutic candidates, their antimicrobial activities should be considered in the light of their selectivity for microbial cell membranes so as to minimize toxicities towards mammalian cells. […] The selectivity indices (SIs) of the peptides were further evaluated as a comparison of the safety and efficacies of the different peptide sequences (Table 2). SIs of the various peptides were calculated as the ratio of the HC10 value (defined as the lowest peptide concentration that induces 10% or more haemolysis) to the GM (geometric mean MICs of the 5 microbial strains tested). […] The acute in vivo toxicity testing was performed via intravenous tail vein injection of solutions containing representative peptides of n=2 [(IRIK)2-NH2 (SEQ ID NO: 17)] and n=3 [(IRVK)3-NH2 (SEQ ID NO: 22)] repeat units in mice.

trypsin and proteinase K = type: in vitro ADME
Procedure: One of the major factors limiting the clinical utility of AMPs lies in their instability to rapid degradation by proteases which are present abundantly in biological fluids and/or secreted by microorganisms. In order to evaluate the proteolytic stability of the designed β-sheet forming peptides, the D- and L-isoforms of the n=2 peptide sequence (IK8-all D or IK8-all L, respectively) were treated with the broad spectrum serine proteases, trypsin and proteinase K, for 6 h and evaluated their antimicrobial activities against S. aureus, E. coli and P. aeruginosa. […] The structural integrity of synthetic peptides following treatment with both proteases was also evaluated using MALDI-TOF mass spectroscopy. […] The cleavage sites of both enzymes for the IK8-all L peptide are illustrated in FIG. 19a with the mass spectra peaks assigned to the major fragments.

S. aureus biofilms [13] = assay: Biofilm biomass, crystal violet staining; type: cell-based, Staphylococcus aureus; conditions: MIC, 4×MIC, 8×MIC, 24 h
Procedure: The biomass of the biofilms was estimated by a crystal violet staining assay. Briefly, the formed biofilms were first treated with the peptides for 24 h as described above. After aspirating the culture medium, the biofilms were washed once with PBS, fixed with methanol for 15 min at room temperature and stained with 100 μL of 0.1% (weight by volume) crystal violet for 10 min. The excess crystal violet dye was removed by rinsing the wells with DI water for five times. The dye that is associated with the biofilm was extracted using 100 μL of 33% glacial acetic acid per well and quantified by measuring the absorbance at a wavelength of 570 nm using a microplate reader (TECAN, Switzerland). The relative amount of biomass remaining after peptide treatment was expressed as a percentage of the control treated with broth containing 10% (by volume) of water. Data represent mean±standard deviations of four replicates per concentration.

S. epidermidis [14] = conditions: 18 h; remark: listed apart in the source
E. coli [15] = conditions: 18 h
E. coli [16] = conditions: 18 h; remark: listed apart in the source
[17] = tested on: Vancomycin-resistant Enterococci; conditions: clinical isolate
[18] = tested on: 5 microorganisms tested (S. epidermidis, S. aureus, E. coli, P. aeruginosa, C. albicans); assay: Mean MIC over the panel and selectivity index (Example 2)
[19] = tested on: LPS-stimulated NO production in NR8383 rat macrophage cell line; assay: Endotoxin neutralization assay (Griess nitrite); type: cell-based; conditions: 125 mg L^−1 peptide, 100 ng mL^−1 LPS, 18 h
Procedure: Untreated cells and cells that were stimulated with LPS alone served as the […] controls, respectively. The amount of NO produced was estimated by quantifying the concentration of the stable NO metabolite nitrite in the isolated supernatant fractions using the Griess reagent (1% sulphanilamide, 0.1% N-1-napthylethylenediamine dihydrochloride, 5% phosphoric acid) according to the manufacturer's protocol. The absorbance was measured at 540 nm and nitrite concentrations were determined using a standard reference curve prepared from known concentrations of NaNO2 solutions.

[20] = tested on: clinically isolated Mycobacterium tuberculosis
S. aureus [21] = type: cell-based, Staphylococcus aureus; conditions: passage 20
[22] = topical eye drops, peptides 3000 mg/L, amphotericin B 1000 mg/L

| Compound | surface morphology under FE-SEM (E. coli and S. aureus) | MIC S. aureus (S. aureus [1]) [µg/mL] | MIC S. aureus (S. aureus [2]) [µg/mL] | killing of S. aureus residing in biofilms (S. aureus biofilms [3]) | MIC P aeruginosa (P. aeruginosa [4]) [µg/mL] | MIC C. albicans (C. albicans [5]) [µg/mL] | HC10, haemolysis concentration 10%: lowest peptide concentration that induces ≧10% haemolysis (rabbit red blood cells) | MIC P. aeruginosa (P. aeruginosa [6]) [µg/mL] | MIC S. epidermidis (S. epidermidis [7]) [µg/mL] | GM, geometric mean of MIC values for the 5 microorganisms tested [8] [µg/mL] | MIC C. albicans (C. albicans [9]) [µg/mL] | MBC C. neoformans (C. neoformans) [µg/mL] | MBC Methicillin-resistant S. aureus [10] [µg/mL] | MBC P. aeruginosa (P. aeruginosa [11]) [µg/mL] | LD50 [12] [mg/kg] | amount of biomass in the treated biofilms (S. aureus biofilms [13]) | MIC S. epidermidis (S. epidermidis [14]) [µg/mL] | MIC E. coli (E. coli [15]) [µg/mL] | MIC E. coli (E. coli [16]) [µg/mL] | MBC Vancomycin-resistant Enterococci [17] [µg/mL] | other results |
| --- | --- | --- | --- | --- | --- | --- | --- | --- | --- | --- | --- | --- | --- | --- | --- | --- | --- | --- | --- | --- | --- |
| CC[C@H](C)[C@H](N)C(=O)N[C@@H](CCCNC(=N)N)C(=O)N[C@H](C(=O)N[C@@H](CCCCN)C(=O)N[C@H](C(=O)N[C@@H](CCCNC(=N)N)C(=O)N[C@H](C(=O)N[C@@H](CCCCN)C(N)=O)[C@@H](C)CC)[C@@H](C)CC)[C@@H](C)CC [(IRIK)2-NH2] (H-IRIKIRIK-NH2; N-terminus assumed) | rough and uneven | 62.5 (≈ 60.2 µM) | 62.5 (≈ 60.2 µM) | dose-dependent killing | 31.3 (≈ 30.1 µM) | 3.9 (≈ 3.76 µM) | 2000 mg/L | 31.3 (≈ 30.1 µM) | 3.9 (≈ 3.76 µM) | 23.4 | 3.9 (≈ 3.76 µM) | 7.8 (≈ 7.51 µM) | 31.3 (≈ 30.1 µM) | 7.8 (≈ 7.51 µM) | 35.2 | reduced in a dose-dependent manner | 3.9 (≈ 3.76 µM) | 15.6 (≈ 15 µM) | 15.6 (≈ 15 µM) | 15.6 (≈ 15 µM) | cell viability of S. aureus in biofilms (S. aureus biofilms [3]; Staphylococcus aureus, 4 ×MIC): less than 10%; MIC F. solani (F. solani): 31.3 µg/mL (≈ 30.1 µM); fungal cells eradicated from the biofilms compared to the untreated control group (C. albicans keratitis; C. albicans counts in mice cornea, agar plating): ~90%; depth of hyphal invasion into the cornea, PAS histology (C. albicans keratitis; [22]): reduced the maximal depth of hyphal invasion; resolution of the keratitis infection (eye appearance) (C. albicans keratitis; [22]): significant resolution of the keratitis infection; clinical scores of mice corneas (slit lamp) (C. albicans keratitis; topical eye drops, peptides 3000 mg/L, amphotericin B 1000 mg/L, P<0.01): significantly lower than that in the control group; antimicrobial activity after protease treatment (trypsin and proteinase K): complete loss in bacterial inhibitory activities; structural integrity after protease treatment, MALDI-TOF MS (trypsin and proteinase K): degradation of the intact peptide; MBC A. baumanni (A. baumanni): 125 µg/mL (≈ 120 µM); GM, geometric mean of MIC values for the 5 microorganisms tested [18]: 23.4 µg/mL |
| CC[C@H](C)[C@H](N)C(=O)N[C@@H](CCCNC(=N)N)C(=O)N[C@H](C(=O)N[C@@H](CCCCN)C(=O)N[C@H](C(=O)N[C@@H](CCCNC(=N)N)C(=O)N[C@H](C(=O)N[C@@H](CCCCN)C(=O)N[C@H](C(=O)N[C@@H](CCCNC(=N)N)C(=O)N[C@H](C(=O)N[C@@H](CCCCN)C(N)=O)C(C)C)[C@@H](C)CC)C(C)C)[C@@H](C)CC)C(C)C [(IRVK)3-NH2] (H-IRVKIRVKIRVK-NH2; N-terminus assumed) | rough and uneven | 31.3 (≈ 20.8 µM) | 31.3 (≈ 20.8 µM) | dose-dependent killing | 62.5 (≈ 41.5 µM) | 125 (≈ 82.9 µM) | >125^e) mg L^−1 | 62.5 (≈ 41.5 µM) | 2.0 (≈ 1.33 µM) | 47.3 | 125 (≈ 82.9 µM) | 15.6 (≈ 10.4 µM) | 15.6 (≈ 10.4 µM) | 15.6 (≈ 10.4 µM) | 35.2 | reduced in a dose-dependent manner | 2.0 (≈ 1.33 µM) | 15.6 (≈ 10.4 µM) | 15.6 (≈ 10.4 µM) | 7.8 (≈ 5.18 µM) | nitrite concentration, LPS-stimulated NO production [19]: reduced to the control level; MIC M. tuberculosis ([20]; strain number 1140): 15.6 µg/mL (≈ 10.4 µM); MIC M. tuberculosis ([20]; strain number 1146): >31.3 µg/mL; MBC A. baumanni (A. baumanni; clinical isolate, multidrug resistant): 15.6 µg/mL (≈ 10.4 µM); GM, geometric mean of MIC values for the 5 microorganisms tested [18]: 47.3 µg/mL |
| CC1(C)S[C@@H]2[C@H](NC(=O)Cc3ccccc3)C(=O)N2[C@H]1C(=O)O [penicillin G, reference compound] | – | – | – | – | – | – | – | – | – | – | – | – | – | – | – | – | – | – | – | – | MICn/MIC0, fold increase in MIC (S. aureus [21]): 32 |
